Entries after “also recorded” stand apart in the source; their conditions may differ.
What was measured:
[1] = system: cell cycle; assay: Cell cycle analysis, DNA content by flow cytometry of propidium iodide stained cells; format: cell-based; settings: position of cell cycle arrest
Experimental: Cell cycle analysis and NCl screen. The data in FIG. 21 and Table 11 show potential structure-activity trends. Several amides derived from the triphenylacetic acid (TPA) and triphenylpropionic acid (TPP) building blocks induced a high degree of cell death in this assay. Experiments were conducted to determine the position on the cell cycle at which these compounds arrest cell growth. This is typically determined by assessing the DNA content as measured flow cytometry analysis of cells stained by propidium iodide. Flow cytometry data is presented in FIG. 22, along with control data. […] One of the active apoptotic inducers identified from this combinatorial library that was not derived from the TPA or TPP building blocks (x) also arrests cell growth in the G2/M phase as indicated by the data in FIG. 22B. However, compounds containing the triphenylacetic acid and triphenylpropionic acid building blocks all arrest cell growth in the G1 phase (FIG. 22C and FIG. 22D). Here compounds x and y correspond to compounds Z2 and Z3.

[2] = system: U-937 cells; assay: Analysis of mitochondria depolarization by flow cytometry (JC-9 dye); format: cell-based, human
Experimental: Further experiments assessed whether the observed death from 12-D, 13-D, and 15-D was due to apoptosis or necrosis.
Analysis of Mitochondria Depolarization by Flow Cytometry: The depolarization of the mitochondrial membrane was measured by the fluorescence emitted by the JC-9 dye (Molecular Probes, Eugene Oreg.). 100 μM of 13-D or 10 μM etoposide in 1 μL of EtOH were added to cell culture flasks containing 50 mL of 10×10^6 U-937 cells/mL. […] 10 μg of the JC-9 dye was added to 1×10^6 cells in 1 mL and incubated at room temperature for 10 min. Cells were washed twice with PBS and resuspended in a final volume of 500 μL PBS. The fluorescence intensity of each cell was determined by flow cytometry at 525 nm (channel 1 green) and 675 nm (channel 4 red). 50,000 cells were analyzed in each experiment. The data was then analyzed using Summit Software (Cytomation, Fort Collins Colo.) and the number of cells within the upper left region, viable cells, was determined.
Apoptotic assays. To determine whether the observed death was due to apoptosis or necrosis, several apoptotic hallmarks were examined. Thus early stage (mitochondrial membrane depolarization), middle stage (caspase-3 like activation, PARP-1 cleavage) and late stage (chromatin condensation, phosphatidylserine exposure, membrane blebbing) biochemical events were monitored. The depolarization of mitochondrial membranes facilitates the release of pro-apoptotic proteins such as cytochrome c and AIF (apoptosis inducing factor) from the mitochondria into the cytosol. Several dyes, including JC-9, have been developed that provide a sensitive readout on this process. […] The release of pro-apoptotic stimuli from the mitochondria initiates a cascade of events that ultimately results in the activation of the “executioner” caspases, typically caspase-3 and caspase-7. The caspase-3-like activity of the cells can be monitored with peptidic substrates. […] PARP-1 cleavage. A final event in apoptosis is the exposure of phosphatidylserine on the outer leaflet of the cell membrane; this event allows for recognition of apoptotic cells by phagocytes, ultimately leading to the engulfment of the apoptotic cell and the recycling of the various cellular components.

[3] = system: U-937 cells; assay: High-throughput cell death assay on library members (MTS/PMS); format: cell-based, human; settings: library members at 100 μM, 24 hours
Experimental: A three-tiered system was devised to identify compounds that selectively induce apoptosis in cancer cells. First, all compounds were screened at 100 μM in a high-throughput manner for their ability to induce death in two cancer cell lines, HL-60 (leukemia) and U-937 (lymphoma).
Test compounds were transferred into the wells using a 96-pin transfer apparatus (V & P Scientific, San Diego Calif.) that transfers 0.2 μL of compound. The compounds were made up as 50 mM stock solutions in 100% EtOH, so one transfer gave a final concentration of 100 μM. Controls were performed in which only EtOH (containing no compound) was pin-transferred into wells containing cells. The cells were incubated with the compounds for 24 hours, and then cell death was quantitated.

[4] = system: splenocytes; assay: Splenocyte toxicity assay (concanavalin A stimulated, MTS/PMS); settings: 72 h
[5] = system: T cells; format: cell-based, mouse
From the text: Erythrocytes were selectively lysed and the T cells were highly enriched by using a mouse erythrocyte lysing kit and a mouse T cell enrichment column (R & D Systems, Minneapolis Minn.). FITC labeled anti-TCR antibodies were used to determine the purity of T cells in pre- and post-column samples. The T cells were enriched from approximately 35% to 90% of the total cell population (see FIG. 6A, 6B below). […] These cells were either stimulated to grow (by addition of ConA to a concentration of 2.5 μg/mL) or left untreated. […] After the 72 hours of incubation, 200 μL of cells were diluted in 300 μL PBS. Propidium iodide was then added to a concentration of 1 μg/mL. Cells were then incubated at room temperature for 5 minutes and analyzed by flow cytometry. The fluorescene intensity of each cell was determined at 620 nm (channel 3) and at least 50,000 cells were analyzed for each experiment (FIG. 7A, 7B, below). The data was then analyzed using Summit Software (Cytomation, Fort Collins Colo.) and the number of viable cells was determined. Non-concanavalin A stimulated T cells were also treated with 13-D, and viable cells in these samples were determined by PI staining (as above).
FIG. 7A illustrates flow cytometry data from Concanavalin A stimulated T cells; region R1 indicates 86.4% viable cells. […]

[6] = system: caspase-3 like protease activity in U-937 cells; assay: Caspase-3 activity assay (Ac-DEVD-pNA cleavage by cell lysates); format: cell-based, human; settings: 100 μM
Experimental: Caspase-3 Activity Assay: The amount of caspase-3 like protease activity was determined by the amount of Ac-DEVD-pNA (N-acetyl-Asp-Glu-Val-Asp p-nitroanilide) cleaved per minute by cell lysates. To accomplish this, 100 μM of 13-D was added to cell culture flasks containing 50 mL of 10×10^6 U-937 cells/mL at 72, 48, 36, 24, 12 and 0 hours before harvesting. Cells were harvested by centrifugation, counted and diluted with RPMI 1640 media to a concentration of 4×10^6 cells/mL. 100 μL of the diluted cells were added to the wells of a 96-well plate in quadruplicate. The plate was then spun at 1000×g for 5 minutes to pellet the cells. […] The slope of the linear portion for each compound was then determined and any cleavage of the substrate in the control wells was subtracted out. The amount of Ac-DEVD-pNA cleaved in pmol/min was then calculated and plotted.
Apoptotic assays. […] Thus early stage (mitochondrial membrane depolarization), middle stage (caspase-3 like activation, PARP-1 cleavage) and late stage (chromatin condensation, phosphatidylserine exposure, membrane blebbing) biochemical events were monitored. […] Several dyes, including JC-9, have been developed that provide a sensitive readout on this process. […] The caspase-3-like activity of the cells can be monitored with peptidic substrates. […]

[7] = in vitro; format: cell-based, human; settings: human
[8] = system: U-937 cells; assay: Microscopy of treated cells; format: cell-based, human; settings: 100 μM
Experimental: Compound 13-D was added to make a final concentration of 100 μM. Pictures of the cells were taken at various times using a Carl Zeiss confocal microscope (Carl Zeiss, Thornwood N.Y.). Picture at 100×; FIG. 9B. Picture at 100×; FIG. 10A. Picture at 400×; FIG. 10B. Picture at 400×; FIG. 10C. Picture at 400×; and FIG. 11. Picture at 200×.

SMILES | cell cycle arrest [1] | observed death due to apoptosis or necrosis [2] | cell population in which apoptosis is induced (JC-9 staining) ([2]; 100 μM, 72 h) | Induction of death in U-937 cells (percentages of cell death) [3] [%] | toxicity towards actively dividing splenocytes ([4]; 500 μM) | IC50 ([4]; Mus musculus, Splenocyte, read-out: IC50 for non-cancerous splenocytes) [µM] | viable cells, treated versus non-treated control cells [5] | caspase-3 activity [6] | IC50 at 72 h [7] [µM] | microscopy, evidence of apoptosis [8]
CC(=O)O[C@H]1C(=O)[C@@]2(C)[C@H]([C@H](OC(=O)c3ccccc3)[C@]3(O)C[C@H](OC(=O)[C@H](O)[C@@H](NC(=O)c4ccccc4)c4ccccc4)C(C)=C1C3(C)C)[C@]1(OC(C)=O)CO[C@@H]1C[C@@H]2O [Taxol] | mitotic (M) phase arrest | – | – | – | – | – | – | – | – | –
COc1cc(/C=C/C(=O)NC[C@@H](O)c2ccc(O)cc2)ccc1O [Compound 13-D, N-[2-(S)-Hydroxy-2-(4-hydroxy-phenyl)-ethyl]-3-(4-hydroxy-3-methoxy-phenyl)-acrylamide] | – | induced apoptosis | over 70% | 87 | virtually no death; also recorded: virtually no toxicity | > 1000 | no difference was observed | strong induction of caspase-3 activity | 44 | membrane blebbing and cell shrinkage

Source: patent US7632972B2, “Compounds and methods for treatment of cancer and modulation of programmed cell death for melanoma and other cancer cells” (The Board of Trustees of the University of Illionis, priority 2003, dated 2009)
